Measured values taken from ChEMBL document CHEMBL3508693 (2016).

Experiments:
CYP2C9 = CYP2C9 (Homo sapiens, UniProt P11712); assay: Inhibitory activity of 20 uM SPP100 on 259 Pmoles of cDNA-derived CYP2C9 enzyme in microsome prepared from human lymphoblastoid cell line; format: ADME, microsomes; design: conc 20 uM, interact cpd conc 6 uM; conditions: probe diclofenac
CYP2A6 [1] = target: T1, CYP2A6 (Homo sapiens, UniProt P11509); assay: Inhibitory activity of 20 uM SPP100 on 37 Pmoles of cDNA-derived CYP2A6 enzyme in microsome prepared from human lymphoblastoid cell line; format: ADME, microsomes; design: conc 20 uM, interact cpd conc 3 uM; conditions: probe coumarine
T1 sequence (P11509 whole entry): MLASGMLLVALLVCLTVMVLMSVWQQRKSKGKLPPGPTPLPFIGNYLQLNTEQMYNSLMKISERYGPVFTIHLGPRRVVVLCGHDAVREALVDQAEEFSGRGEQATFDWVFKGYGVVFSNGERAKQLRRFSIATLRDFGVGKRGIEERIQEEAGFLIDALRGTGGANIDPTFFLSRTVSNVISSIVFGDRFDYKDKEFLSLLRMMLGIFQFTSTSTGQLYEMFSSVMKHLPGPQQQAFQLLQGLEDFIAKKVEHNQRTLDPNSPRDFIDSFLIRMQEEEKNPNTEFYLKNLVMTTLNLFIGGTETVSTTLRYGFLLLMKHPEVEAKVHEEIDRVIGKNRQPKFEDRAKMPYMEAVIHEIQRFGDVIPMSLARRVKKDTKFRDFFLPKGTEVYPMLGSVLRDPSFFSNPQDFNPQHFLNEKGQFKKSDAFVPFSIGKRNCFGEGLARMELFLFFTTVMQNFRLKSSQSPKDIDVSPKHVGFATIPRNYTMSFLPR

CYP2A6 [2] = target: T1, CYP2A6; assay: Inhibitory activity of 200 uM SPP100 on 37 Pmoles of cDNA-derived CYP2A6 enzyme in microsome prepared from human lymphoblastoid cell line; format: ADME, microsomes; design: conc 200 uM, interact cpd conc 3 uM; conditions: probe coumarine
[3] = AUC of SPP100 following single intravenous dose of [14C] aliskiren hemifumarate at 1 mg.Kg-1 level in marmoset; format: ADME, organism-based, Callithrix jacchus, Plasma; conditions: in vivo
[4] = % of radioactivity recovered as aliskiren in plasma following oral administration of [14C] aliskiren hemifumarate at 100 mg.Kg-1 level in rat; format: ADME, organism-based, Albino HAN:WIST; conditions: in vivo
[5] = Mean excretion of radioactivity (48-72h) in urine and faeces following single oral dose of 100 mg.Kg-1 [14C] aliskiren hemifumarate in rat; format: ADME, organism-based, Albino HAN:WIST, Urine/Feces; conditions: in vivo
[6] = Mean excretion of radioactivity (48-72h) in urine and faeces following single intravenous dose of 10 mg.Kg-1 [14C] aliskiren hemifumarate in rat; format: ADME, organism-based, Albino HAN:WIST, Urine/Feces; conditions: in vivo
[7] = Cmax of radioactivity following repeated oral administration of [14C] aliskiren hemifumarate at 100 mg.Kg-1 level studied after 2h of dosing on day 1 in rat; format: ADME, organism-based, Albino HAN:WIST; conditions: in vivo, read-out: Cmax(1)
[8] = Excretion of radioactivity (48-72h) in faeces following single intravenous dose of 10 mg.Kg-1 [14C] aliskiren hemifumarate in rat; format: ADME, organism-based, Albino HAN:WIST, Feces; conditions: in vivo
[9] = Excretion of radioactivity (0-24h) in urine following single intravenous dose of 10 mg.Kg-1 [14C] aliskiren hemifumarate in mouse; format: ADME, organism-based, TgRasH2; conditions: in vivo
[10] = Excretion of radioactivity (0-72h) in faeces following single intravenous dose of 10 mg.Kg-1 [14C] aliskiren hemifumarate in mouse; format: ADME, organism-based, TgRasH2, Feces; conditions: in vivo
[11] = Excretion of radioactivity (48-72h) in urine following single intravenous dose of 10 mg.Kg-1 [14C] aliskiren hemifumarate in rat; format: ADME, organism-based, Albino HAN:WIST; conditions: in vivo
[12] = AUC/dose (0-168h) of total radioactivity following single oral administration of [14C] aliskiren hemifumarate at 3 mg.Kg-1 level in marmoset; format: ADME, organism-based, Callithrix jacchus, Plasma; conditions: in vivo
[13] = Excretion (0-24h) of radioactivity in urine following oral administration of [14C] aliskiren hemifumarate at 3 mg.Kg-1 level in marmoset; format: ADME, organism-based, Callithrix jacchus; conditions: in vivo
[14] = Excretion (0-168h) of 14C-radioactivity in urine following single oral dose of 300 mg [14C]SPP100 studied in healthy men; format: ADME, organism-based; conditions: human, in vivo, at 300 mg
[15] = Excretion of radioactivity (48-72h) in urine following single intravenous dose of 10 mg.Kg-1 [14C] aliskiren hemifumarate in mouse; format: ADME, organism-based, TgRasH2; conditions: in vivo
[16] = AUC(0-24h) of aliskiren hemifumarate following 2 week oral dosing of aliskiren hemifumarate at 10 mg.Kg-1 level studied on day 1 in male Callithrix jacchus; format: ADME, organism-based; conditions: marmoset, plasma
[17] = Cmax of aliskiren hemifumarate following 4 week oral dietary dosing of aliskiren hemifumarate at 2000 mg.Kg-1 level in female mouse; format: ADME, organism-based; conditions: CB6F1-TGrasH2, mouse, in vivo
[18] = AUC (0-24h)/dose of aliskiren hemifumarate following 4 week oral dietary dosing of aliskiren hemifumarate at 2000 mg.Kg-1 level in female mouse; format: ADME, organism-based, CB6F1-TGrasH2, Plasma; conditions: in vivo
[19] = Tmax (0-96h) of unlabeled aliskiren hemifumarate following oral administration of aliskiren hemifumarate at 100 mg.Kg-1 level in rat; format: ADME, organism-based; conditions: Albino HAN:WIST, plasma
[20] = AUCspec of aliskiren hemifumarate following 2 week oral dosing of aliskiren hemifumarate at 10 mg.Kg-1 level studied on day 1 in female Callithrix jacchus; format: ADME, organism-based, Plasma; conditions: marmoset, in vivo, 336 h
[21] = Cmaxspec of aliskiren hemifumarate following 2 week oral dosing of aliskiren hemifumarate at 50 mg.Kg-1 level studied on day 1 in male Callithrix jacchus; format: ADME, organism-based, Plasma; conditions: marmoset, in vivo, 336 h
[22] = AUC (0-24h)/dose of aliskiren hemifumarate following 4 week oral dietary dosing of aliskiren hemifumarate at 1000 mg.Kg-1 level in male mouse; format: ADME, organism-based, CB6F1-TGrasH2, Plasma; conditions: in vivo
[23] = Effect of 4 week oral dietary dosing of aliskiren hemifumarate at 2000 mg.Kg-1 level on spermatogenesis in male mouse; format: toxicity, organism-based, CB6F1-TGrasH2, Testis; conditions: in vivo, 672 h
[24] = Apparent terminal elimination half-life (0-96h) of unlabeled aliskiren hemifumarate following intravenous administration of aliskiren hemifumarate at 10 mg.Kg-1 level in rat; format: ADME, organism-based; conditions: Albino HAN:WIST, plasma
[25] = Cmax of unlabeled aliskiren hemifumarate following single intravenous dose of aliskiren hemifumarate at 10 mg.Kg-1 level in mouse; format: ADME, organism-based; conditions: TgRasH2, mouse, plasma
[26] = Effect of 2 week oral dosing of aliskiren hemifumarate at 100 mg.Kg-1 level on blood urea nitrogen level in male Callithrix jacchus; format: toxicity, organism-based, Plasma; conditions: marmoset, 336 h
[27] = Effect of 2 week oral dosing of aliskiren hemifumarate at 100 mg.Kg-1 level on hematological parameter values in male Callithrix jacchus; format: toxicity, organism-based, Plasma; conditions: marmoset, in vivo, 336 h
[28] = Tmax of aliskiren hemifumarate following 4 week oral dietary dosing of aliskiren hemifumarate at 2000 mg.Kg-1 level in male mouse; format: ADME, organism-based; conditions: CB6F1-TGrasH2, mouse, in vivo
[29] = Cmax/dose (0-96h) of unlabeled aliskiren hemifumarate following intravenous administration of aliskiren hemifumarate at 10 mg.Kg-1 level in rat; format: ADME, organism-based, Albino HAN:WIST, Plasma; conditions: in vivo
[30] = Cmax/dose of aliskiren hemifumarate following 4 week oral dietary dosing of aliskiren hemifumarate at 500 mg.Kg-1 level in male mouse; format: ADME, organism-based, CB6F1-TGrasH2; conditions: in vivo, 672 h
[31] = Tmax of aliskiren hemifumarate following 8 day once-daily dosing of SPP100B oral solution at 640 mg level studied on day 8 in men; format: ADME, organism-based; conditions: male, human, plasma
[32] = Cmax of aliskiren hemifumarate following 2 week oral dosing of aliskiren hemifumarate at 10 mg.Kg-1 level studied on day 1 in male Callithrix jacchus; format: ADME, organism-based; conditions: marmoset, plasma
[33] = Tmax of aliskiren hemifumarate following 2 week oral dosing of aliskiren hemifumarate at 100 mg.Kg-1 level studied on day 1 in male Callithrix jacchus; format: ADME, organism-based; conditions: marmoset, plasma

Chain of CYP2C9 (P11712 whole entry): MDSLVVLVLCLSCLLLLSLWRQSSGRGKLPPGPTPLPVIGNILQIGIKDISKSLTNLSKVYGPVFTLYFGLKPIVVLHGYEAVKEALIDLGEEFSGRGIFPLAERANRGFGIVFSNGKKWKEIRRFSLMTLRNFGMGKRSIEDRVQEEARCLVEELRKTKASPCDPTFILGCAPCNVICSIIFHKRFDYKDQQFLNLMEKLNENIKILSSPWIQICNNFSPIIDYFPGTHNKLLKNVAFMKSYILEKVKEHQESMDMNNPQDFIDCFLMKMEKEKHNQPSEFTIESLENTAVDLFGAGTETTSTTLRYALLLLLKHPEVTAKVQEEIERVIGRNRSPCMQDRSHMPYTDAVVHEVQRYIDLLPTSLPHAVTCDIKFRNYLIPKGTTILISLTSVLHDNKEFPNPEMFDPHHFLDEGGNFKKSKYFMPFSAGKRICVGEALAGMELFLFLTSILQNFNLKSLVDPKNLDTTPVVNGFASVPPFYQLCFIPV

COCCCOc1cc(C[C@@H](C[C@H](N)[C@@H](O)C[C@H](C(=O)NCC(C)(C)C(N)=O)C(C)C)C(C)C)ccc1OC
inhibition at 20 µM (CYP2C9): 0.9%
inhibition at 20 µM (CYP2A6 [1]): 2.6%
inhibition at 200 µM (CYP2A6 [2]): 2.6%
AUC [3]: 23806 ng·h/mL
Compound recovery [4]: > 40%

COCCCOc1cc(C[C@@H](C[C@H](N)[C@@H](O)C[C@H](C(=O)NCC([14CH3])([14CH3])C(N)=O)C(C)C)C(C)C)ccc1OC.O=C(O)/C=C/C(=O)O
Radiolabel recovery [5]: 16.3%
Radiolabel recovery [6]: 5.05%
Cmax [7]: 1.09 µM
Radiolabel recovery [8]: 4.69%
Radiolabel recovery [9]: 69.49%
Radiolabel recovery [10]: 91.1%
Radiolabel recovery [11]: 16.2%
AUC normalised [12]: 1.61 (umol.h/L)/(mg/kg)
Radiolabel recovery [13]: 2.22%
Radiolabel recovery [14]: 0.6%
Radiolabel recovery [15]: 8.99%

COCCCOc1cc(C[C@@H](C[C@H](N)[C@@H](O)C[C@H](C(=O)NCC(C)(C)C(N)=O)C(C)C)C(C)C)ccc1OC.COCCCOc1cc(C[C@@H](C[C@H](N)[C@@H](O)C[C@H](C(=O)NCC(C)(C)C(N)=O)C(C)C)C(C)C)ccc1OC.O=C(O)/C=C/C(=O)O [ALISKIREN FUMARATE]
AUC(0-t) at 24 h [16]: 22000 ng·h/mL
Cmax [17]: 1230 ng/mL
AUC normalised [18]: 5.88 ((ng/mL).hours)/(mg/kg/day)
Tmax [19]: 0.25 h
AUC normalised [20]: 2.13 ((ug.h.ml-1)/(mg/kg)
Cmax normalised [21]: 0.126 (ug/ml)/(mg/kg)
AUC normalised [22]: 4.82 ((ng/mL).hours)/(mg/kg/day)
Change in spermatogenesis [23]: OUTCOME = No abnormalities. No animals died during the study.
half-life [24]: 23.1 h
Cmax [25]: 19.8 µM
BUN_CHANGE_BY [26]: 166%
Change in hematology [27]: OUTCOME = Hematological parameter values did not differ from control values. No animals died during the study.
Tmax [28]: 1 h
Cmax normalised [29]: 2.92 (umol/L)/(mg/kg)
Cmax normalised [30]: 0.624 (ng/mL)/(mg/kg/day)
Tmax [31]: 3.2 h
Cmax [32]: 3960 ng/mL
Tmax [33]: 1 h
